{"source": "patent US20220233535A1", "about": "“USE OF INHIBITORS OF YAP/TAZ FOR THE TREATMENT OF CANCER” (Georgetown University, priority 2019, published 2022)", "assay_type_in_all_cases": "cell-based", "key": {"[1]": {"test_system": "pERK (ERK phosphorylation)", "experiment": "Western blot analysis of pERK levels in SN12C cells treated with inhibitors/compounds", "details": "for pERK levels in shY/T cells with increasing concentrations: HCl 1 h 0-12 mM, BAPTA 3 h 0-13 μM, Baf 3 h 0-0.5 μM; for pERK levels in shY/T cells: western blot; for pERK levels in Ctrl cells: CaCl2 2 hours 0, 0.5, 1, 2 mM (FIG. 7K), bicarbonate (FIG. 8K)", "method": "(§1) Cells were grown for 24 hours in serum-free medium in the presence of various inhibitors unless indicated otherwise. After a brief wash with cold PBS, cells were lysed in urea buffer (9.5 M urea, 2% 3-[(3-cholamidopropyl)dimethylammonio]-1-propanesulfonate (CHAPS)), adjusted to similar concentrations, mixed with 6× sodium dodecyl sulfate (SDS) loading dye, heated at 95° C. for 10 minutes, and subjected to SDS-polyacrylamide gel electrophoresis and semi-dry transferring to polyvinylidene fluoride (PVDF) membranes. For analysis of oxidative phosphorylation (OXPHOS) complexes, 2×10^7 Ctrl and shY/T cells were harvested and either saved as whole cell extract (WCE) or processed using the Mitochondria Isolation Kit for cultured cells according to the manufacturer's instructions (Thermo Fisher Scientific). The WCE and mitochondrial-enriched fraction were resuspended in radioimmunoprecipitation assay (RIPA) buffer for western blot analysis."}, "[2]": {"test_system": "pAKT (AKT phosphorylation)", "experiment": "Western blot analysis of pAKT levels in SN12C cells", "details": "for pAKT levels in Ctrl cells: Ctrl SN12C cells treated overnight, western blot", "method": "as §1"}, "[3]": {"test_system": "Ctrl and shY/T SN12C cells", "experiment": "Nutrient deprivation experiments, percent change in RFP fluorescence (proliferation and survival)", "details": "3 days; for proliferation under nutrient-replete conditions: Ctrl and shY/T SN12C; for proliferation under nutrient-replete conditions / Glc- and Gln-starvation-induced cell death in shY/T cells: GSH 0.3 mM or EGF 1 μg/ml; for Glc- and Gln-starvation-induced cell death in shY/T cells: shY/T SN12C", "method": "For SN12C cells, all medium in nutrient deprivation studies contained a base of RPMI salt mix (0.42 mM Ca(NO3)2.4H2O, 0.41 mM MgSO4, 5.4 mM KCl, 23.8 mM NaHCO3, 102.7 mM NaCl, and 5.6 mM Na2HPO4), RPMI 1640 vitamins solution (Millipore Sigma, St. Louis, Mo.), MEM amino acids solution (ThermoFisher Scientific), and MEM non-essential amino acids solution (Sigma). Nutrient replete conditions received 11.1 mM glucose (Millipore Sigma) and 2 mM glutamine (Lonza, Benicia, Calif.) and deprivation conditions lacked or contain reduced amount of their respective nutrient as indicated. For SC4 cells, all medium in nutrient deprivation studies contained a base of DMEM without glucose or glutamine (#D5030, Millipore Sigma) and supplemented with sodium pyruvate and sodium bicarbonate to levels in standard DMEM formulation. For conditions with glucose or glutamine, 5.6 mM glucose (Millipore Sigma) and/or 4 mM glutamine (Lonza) were added. Reduced cellular glutathione (GSH) (Alfa Aesar, Haverhill, Mass.) and epidermal growth factor (EGF) (Millipore Sigma) were used at final concentrations of 0.3 mM and 1 μg/ml, respectively. Percent survival was calculated based on the sequential measurements of red fluorescent protein (RFP) fluorescence (filter range 553-574 nm) at the initiation and end of treatment using the Synergy™ Hybrid Multi-Mode Microplate Reader (BioTek, Winooski, Vt.). A one-way ANOVA with Sidak's multiple comparison test was used to calculate significance for all nutrient deprivation experiments."}, "shY/T SN12C cells [4]": {"test_system": "shY/T SN12C cells", "experiment": "Media pH measurements", "details": "shY/T SN12C grown overnight with 0 or 0.3 μM bafilomycin", "method": "Cells were plated at the same time with optimized seeding densities that ensure all cell lines to reach 80% confluence at the time of measurement. Medium supernatant was collected and measured using the Thermo Scientific™ Orion™ 3-Star Benchtop pH Meter after calibration."}, "shY/T SN12C cells [5]": {"test_system": "shY/T SN12C cells", "experiment": "Intracellular calcium assay", "details": "shY/T SN12C grown overnight with 0 or 0.3 μM bafilomycin", "method": "Cells were grown for indicated time in serum-free medium, washed with ice-cold PBS, collected in 100 mM Tris pH 7.5 buffer using cell scraper, and processed using the Calcium Assay Kit (Cayman Chemicals) according to the manufacturer's instructions. The calcium concentrations were normalized to the protein concentrations determined using Bradford Protein Assay (Bio-Rad)."}, "[6]": {"test_system": "Ctrl and shY/T SN12C cells", "experiment": "Lysosome inhibitor treatment of Ctrl and shY/T cells under different nutrient conditions", "details": "bafilomycin 24 hours, chloroquine 3 days, −Glc or −Gln medium", "experimental": "Nutrient replete conditions received 11.1 mM glucose (Millipore Sigma) and 2 mM glutamine (Lonza, Benicia, Calif.) and deprivation conditions lacked or contain reduced amount of their respective nutrient as indicated. For SC4 cells, all medium in nutrient deprivation studies contained a base of DMEM without glucose or glutamine (#D5030, Millipore Sigma) and supplemented with sodium pyruvate and sodium bicarbonate to levels in standard DMEM formulation. For conditions with glucose or glutamine, 5.6 mM glucose (Millipore Sigma) and/or 4 mM glutamine (Lonza) were added. […] Percent survival was calculated based on the sequential measurements of red fluorescent protein (RFP) fluorescence (filter range 553-574 nm) at the initiation and end of treatment using the Synergy™ Hybrid Multi-Mode Microplate Reader (BioTek, Winooski, Vt.). […]\nCells were plated at optimized seeding densities to reach 60-70% confluence on the next day, at which point the media were replaced with serum-free medium containing Dox and serially diluted compounds or vehicle control. […] After incubation for indicated time, cell viability was measured using the CellTiter-Glo Luminescence Cell Viability assay (Promega) or ATPlite Luminescence Assay (Perkin Elmer) for FIG. 1B. Percent viability for each cell lines was calculated based on vehicle control."}, "[7]": {"details": "shY/T SN12C cells treated overnight"}}, "note": "Counter-ions that a name gives are not always drawn.", "data": [{"molecule": "O=C(O)CN(CC(=O)O)c1ccccc1OCCOc1ccccc1N(CC(=O)O)CC(=O)O", "note": "[BAPTA]", "values": [{"measurement": "pERK levels in shY/T cells with increasing concentrations", "setting": "[1]; shY/T SN12C", "result": "reduced pERK levels in a dose-dependent manner"}]}, {"molecule": "EGF: epidermal growth factor (NSDSECPLSHDGYCLHDGVCMYIEALDKYACNCVVGYIGERCQYRDLKWWELR; Epidermal growth factor; UniProt P01133 971-1023, looked up)", "values": [{"measurement": "AKT phosphorylation in shY/T cells", "setting": "[2]; shY/T SN12C cells after addition of EGF", "result": "partially rescued AKT phosphorylation"}, {"measurement": "proliferation under nutrient-replete conditions", "setting": "[3]", "result": "allowed shY/T cells to regain the ability to proliferate"}, {"measurement": "Glc- and Gln-starvation-induced cell death in shY/T cells", "setting": "[3]; −Glc or −Gln", "result": "did not prevent cell death"}]}, {"molecule": "CNc1ncc2cc(-c3cc(NC(=O)NCCC(C)(C)C)c(F)cc3C)c(C)nc2n1", "note": "[LY3009120]", "values": [{"measurement": "pAKT levels in Ctrl cells", "setting": "[2]", "result": "did not reduce pAKT levels"}, {"measurement": "pERK levels in shY/T cells", "setting": "[1]; [7]", "result": "inhibited pERK levels"}]}, {"molecule": "O=S(=O)(NCCNC/C=C/c1ccc(Br)cc1)c1cccc2cnccc12", "note": "[H-89]", "values": [{"measurement": "pAKT levels in Ctrl cells", "setting": "[2]", "result": "without also blocking pAKT"}, {"measurement": "pERK levels in shY/T cells, combination of PKA inhibitor H-89 and EPAC inhibitor HJC", "setting": "[1]; shY/T SN12C cells treated overnight, FIG. 8E", "result": "synergizes with EPAC inhibitor HJC in reducing pERK levels"}, {"measurement": "pERK levels in shY/T cells", "setting": "[1]; [7]", "result": "specifically inhibited ERK phosphorylation"}]}, {"molecule": "CNC(=O)c1cc(Oc2ccc(NC(=O)Nc3ccc(Cl)c(C(F)(F)F)c3)cc2)ccn1", "note": "[Sorafenib]", "values": [{"measurement": "pAKT levels in Ctrl cells", "setting": "[2]", "result": "did not reduce pAKT levels"}, {"measurement": "pERK levels in shY/T cells", "setting": "[1]; [7]", "result": "inhibited pERK levels"}]}, {"molecule": "[Ca+2].[Cl-].[Cl-]", "note": "[calcium, CaCl2]", "values": [{"measurement": "pERK levels in Ctrl cells", "setting": "[1]; Ctrl cells", "result": "increased pERK levels"}]}, {"molecule": "O=C(O)O", "note": "[Bicarbonate, NaHCO3]", "values": [{"measurement": "pERK levels in Ctrl cells", "setting": "[1]; Ctrl cells", "result": "raised pERK levels"}]}, {"molecule": "CC(C)NCC(O)c1ccc(NS(C)(=O)=O)cc1", "note": "(centres unmarked) [Sotalol]", "values": [{"measurement": "pERK levels in shY/T cells", "setting": "[1]; [7]", "result": "none of the GPCR inhibitors reduced ERK phosphorylation"}]}, {"molecule": "CN=c1nc(-c2ccccc2)n(-c2ccccc2)s1", "note": "[SCH 202676]", "values": [{"measurement": "pERK levels in shY/T cells", "setting": "[1]; [7]", "result": "none of the GPCR inhibitors reduced ERK phosphorylation"}]}, {"molecule": "COc1ccc2cc(-c3cc(-c4cc(C(F)(F)F)ccc4F)nn3[C@@H](C)c3ccc(C(=O)NCCC(=O)O)cc3)ccc2c1", "note": "[GRA-1]", "values": [{"measurement": "pERK levels in shY/T cells", "setting": "[1]; [7]", "result": "none of the GPCR inhibitors reduced ERK phosphorylation"}]}, {"molecule": "Nc1ncnc2c1ncn2[C@@H]1O[C@@H]2COP(O)(=S)O[C@H]2[C@H]1O", "note": "(some centres unmarked) [Rp-cAMP]", "values": [{"measurement": "pAKT levels in Ctrl cells", "setting": "[2]", "result": "without affecting pAKT"}, {"measurement": "pERK levels in shY/T cells", "setting": "[1]; [7]", "result": "specifically inhibited ERK phosphorylation"}]}, {"molecule": "CC(Sc1nc2ccccc2[nH]1)C(=O)N/N=C/c1cc(Br)ccc1O", "note": "(centres unmarked) [KH7]", "values": [{"measurement": "pAKT levels in Ctrl cells", "setting": "[2]", "result": "not pAKT"}, {"measurement": "bicarbonate-raised pERK levels in Ctrl cells", "setting": "[1]; Ctrl cells, bicarbonate plus KH7, FIG. 8K", "result": "blocked by KH7"}, {"measurement": "pERK levels in shY/T cells", "setting": "[1]; [7]", "result": "drastically inhibited pERK levels"}]}, {"molecule": "Cl.c1ccc(C2CCCC2NC2=NCCCCCCCCCCC2)cc1", "note": "(centres unmarked) [MDL 12330A]", "values": [{"measurement": "ERK phosphorylation, tmAC activator/inhibitor alone or in combination", "setting": "[1]; overnight, FIG. 8K", "result": "no effect on ERK phosphorylation"}]}, {"molecule": "CO/C1=C\\C(C)=C\\[C@@H](C)[C@@H](O)[C@@H](C)C/C(C)=C/C=C/[C@H](OC)[C@@H]([C@@H](C)[C@@H](O)[C@H](C)[C@@]2(O)C[C@@H](O)[C@H](C)[C@@H](C(C)C)O2)OC1=O", "note": "[bafilomycin]", "values": [{"measurement": "media pH", "setting": "shY/T SN12C cells [4]", "result": "significantly reduced pH"}, {"measurement": "intracellular calcium concentration", "setting": "shY/T SN12C cells [5]", "result": "significantly reduced pH and calcium levels"}, {"measurement": "bafilomycin-mediated ERK inhibition with exogenous HCO3−", "setting": "[1]; shY/T SN12C, 3 h, 0.3 μM Baf and/or 25 mM NaHCO3", "result": "rescued by the addition of exogenous HCO3^−"}, {"measurement": "pERK levels in shY/T cells with increasing concentrations", "setting": "[1]; shY/T SN12C", "result": "inhibited ERK phosphorylation in a dose-dependent manner"}, {"measurement": "sensitivity of NF2-mutant cells to lysosomal inhibition upon YAP/TAZ depletion", "setting": "[6]", "result": "increased the sensitivity of NF2-mutant cells to lysosomal inhibition, especially under nutrient-deprived conditions"}]}, {"molecule": "Cl", "note": "[HCl]", "values": [{"measurement": "pERK levels in shY/T cells with increasing concentrations", "setting": "[1]; shY/T SN12C", "result": "reduced pERK levels in a dose-dependent manner"}]}, {"molecule": "CCN(CC)CCCC(C)Nc1ccnc2cc(Cl)ccc12", "note": "(centres unmarked) [chloroquine]", "values": [{"measurement": "sensitivity of NF2-mutant cells to lysosomal inhibition upon YAP/TAZ depletion", "setting": "[6]", "result": "increased the sensitivity of NF2-mutant cells to lysosomal inhibition, especially under nutrient-deprived conditions"}]}, {"molecule": "N[C@@H](CCC(=O)N[C@@H](CS)C(=O)NCC(=O)O)C(=O)O", "note": "[GSH, glutathione]", "values": [{"measurement": "Glc- and Gln-starvation-induced cell death in Ctrl cells", "setting": "[3]; Ctrl SN12C, −Glc or −Gln, GSH 0.3 mM", "result": "had no effect"}, {"measurement": "proliferation under nutrient-replete conditions", "setting": "[3]", "result": "did not affect the proliferation"}, {"measurement": "Glc- and Gln-starvation-induced cell death in shY/T cells", "setting": "[3]; −Glc or −Gln", "result": "significantly inhibited"}]}]}
